Test results as given in publication PMC8474115 (Journal of Medicinal Chemistry, 2021).
Where a name gives a salt, the structure may show the parent alone. Read-outs that look alike come from different tables or passages of the source.

Columns and labels:
MAO-A = molecular target: T1, MAO-A (Homo sapiens, UniProt P21397); assay: Eurofins SafetyScreen panel; assay type: biochemical
T1 construct: Eurofins

ACE = molecular target: T2, ACE (Oryctolagus cuniculus, UniProt P12822); assay: Eurofins SafetyScreen panel; assay type: biochemical, rabbit
T2 construct: Eurofins

Adenosine A1 = molecular target: T3, Adenosine A1 (Homo sapiens, UniProt P30542); assay: Eurofins SafetyScreen panel; assay type: binding
T3 construct: Eurofins (contract screening, SafetyScreen panel) PP223

Adenosine A2A = molecular target: T4, Adenosine A2A (Homo sapiens, UniProt P29274); assay: Eurofins SafetyScreen panel; assay type: binding
T4 construct: Eurofins (contract screening, SafetyScreen panel) PP223

Adrenergic α1B = molecular target: T5, Adrenergic α1B (Rattus norvegicus, UniProt P15823); assay: Eurofins SafetyScreen panel; assay type: binding
T5 construct: Eurofins (contract screening, SafetyScreen panel) PP223

Adrenergic α2A = molecular target: T6, Adrenergic α2A (Homo sapiens, UniProt P08913); assay: Eurofins SafetyScreen panel; assay type: binding
T6 construct: Eurofins (contract screening, SafetyScreen panel) PP223
T6 sequence (P08913 1-465): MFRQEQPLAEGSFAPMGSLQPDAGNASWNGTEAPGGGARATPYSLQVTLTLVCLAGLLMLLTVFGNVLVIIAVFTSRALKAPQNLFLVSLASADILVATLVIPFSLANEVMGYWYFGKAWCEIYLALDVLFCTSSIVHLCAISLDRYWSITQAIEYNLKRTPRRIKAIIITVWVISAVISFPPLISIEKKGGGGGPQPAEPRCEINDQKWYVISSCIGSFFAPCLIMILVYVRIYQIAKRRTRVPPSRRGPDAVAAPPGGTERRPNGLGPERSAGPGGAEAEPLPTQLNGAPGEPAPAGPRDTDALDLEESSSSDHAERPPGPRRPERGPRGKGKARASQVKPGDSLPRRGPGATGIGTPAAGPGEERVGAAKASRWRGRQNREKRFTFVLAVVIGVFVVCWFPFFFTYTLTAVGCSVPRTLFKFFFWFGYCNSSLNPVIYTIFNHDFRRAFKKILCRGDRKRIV

[1] = molecular target: Ca Channel L-Type, Benzothiazepine (Rattus norvegicus, UniProt P22002); assay: Eurofins SafetyScreen panel; assay type: binding
Chain of Ca Channel L-Type, Benzothiazepine (P22002 whole entry): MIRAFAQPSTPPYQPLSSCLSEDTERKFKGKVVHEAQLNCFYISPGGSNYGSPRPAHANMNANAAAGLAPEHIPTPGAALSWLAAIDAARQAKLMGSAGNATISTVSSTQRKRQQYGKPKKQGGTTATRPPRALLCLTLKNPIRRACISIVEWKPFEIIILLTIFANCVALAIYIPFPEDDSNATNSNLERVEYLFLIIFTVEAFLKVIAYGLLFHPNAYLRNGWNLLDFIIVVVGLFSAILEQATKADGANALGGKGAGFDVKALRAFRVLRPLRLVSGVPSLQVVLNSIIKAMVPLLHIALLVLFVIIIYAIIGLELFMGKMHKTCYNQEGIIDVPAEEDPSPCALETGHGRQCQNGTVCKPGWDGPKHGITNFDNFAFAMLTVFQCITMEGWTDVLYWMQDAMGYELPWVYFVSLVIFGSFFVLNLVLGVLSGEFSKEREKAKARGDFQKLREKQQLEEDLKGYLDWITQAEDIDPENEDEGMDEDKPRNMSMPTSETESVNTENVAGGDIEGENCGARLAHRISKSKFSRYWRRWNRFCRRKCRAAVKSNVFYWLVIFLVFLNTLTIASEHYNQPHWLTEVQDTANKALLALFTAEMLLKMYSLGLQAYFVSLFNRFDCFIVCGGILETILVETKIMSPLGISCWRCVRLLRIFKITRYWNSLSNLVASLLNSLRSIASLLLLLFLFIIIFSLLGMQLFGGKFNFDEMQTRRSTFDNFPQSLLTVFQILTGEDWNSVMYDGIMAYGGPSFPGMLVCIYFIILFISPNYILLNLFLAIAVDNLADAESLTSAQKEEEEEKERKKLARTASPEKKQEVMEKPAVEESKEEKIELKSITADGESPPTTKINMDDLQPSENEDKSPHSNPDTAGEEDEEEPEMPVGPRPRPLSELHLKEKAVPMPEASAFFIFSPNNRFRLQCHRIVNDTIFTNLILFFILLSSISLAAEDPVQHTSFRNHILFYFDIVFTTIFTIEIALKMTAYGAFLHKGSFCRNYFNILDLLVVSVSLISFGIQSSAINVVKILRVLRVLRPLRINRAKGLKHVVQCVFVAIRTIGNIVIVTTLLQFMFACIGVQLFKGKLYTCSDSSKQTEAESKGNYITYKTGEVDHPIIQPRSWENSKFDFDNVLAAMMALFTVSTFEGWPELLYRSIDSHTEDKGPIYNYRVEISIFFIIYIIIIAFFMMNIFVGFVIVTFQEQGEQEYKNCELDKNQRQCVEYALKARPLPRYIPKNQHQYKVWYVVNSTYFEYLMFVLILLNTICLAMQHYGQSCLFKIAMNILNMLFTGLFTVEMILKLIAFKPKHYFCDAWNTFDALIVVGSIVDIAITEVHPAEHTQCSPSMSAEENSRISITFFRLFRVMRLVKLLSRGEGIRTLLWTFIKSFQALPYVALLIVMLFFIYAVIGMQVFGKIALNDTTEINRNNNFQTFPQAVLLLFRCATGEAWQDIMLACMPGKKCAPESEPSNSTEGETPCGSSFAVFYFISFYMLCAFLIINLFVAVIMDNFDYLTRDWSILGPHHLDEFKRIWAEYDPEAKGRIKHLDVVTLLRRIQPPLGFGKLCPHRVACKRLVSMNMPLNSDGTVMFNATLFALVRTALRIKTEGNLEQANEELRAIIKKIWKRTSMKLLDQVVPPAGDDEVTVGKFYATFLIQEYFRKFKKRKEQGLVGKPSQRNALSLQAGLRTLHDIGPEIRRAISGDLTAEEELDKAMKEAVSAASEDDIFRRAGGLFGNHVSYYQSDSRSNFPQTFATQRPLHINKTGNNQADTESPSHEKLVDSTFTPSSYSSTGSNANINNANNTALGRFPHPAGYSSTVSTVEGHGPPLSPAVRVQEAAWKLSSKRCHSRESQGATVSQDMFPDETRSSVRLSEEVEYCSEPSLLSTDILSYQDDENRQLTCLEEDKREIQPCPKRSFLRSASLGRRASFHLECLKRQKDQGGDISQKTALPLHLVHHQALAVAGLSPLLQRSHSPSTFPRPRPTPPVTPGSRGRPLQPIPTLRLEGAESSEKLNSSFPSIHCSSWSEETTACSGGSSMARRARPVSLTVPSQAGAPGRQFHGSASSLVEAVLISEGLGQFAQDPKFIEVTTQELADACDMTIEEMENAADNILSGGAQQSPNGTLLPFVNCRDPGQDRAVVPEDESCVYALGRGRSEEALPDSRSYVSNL

Dopamine D2L = molecular target: T7, Dopamine D2L (Homo sapiens, UniProt P14416); assay: Eurofins SafetyScreen panel; assay type: binding
T7 construct: purchased Eurofins (Panlabs) SafetyScreen87 Panel

Dopamine D3 = molecular target: T8, Dopamine D3 (Homo sapiens, UniProt P35462); assay: Eurofins SafetyScreen panel; assay type: binding
T8 construct: Eurofins (contract screening) 219800

Histamine H1 = molecular target: T9, Histamine H1 (Homo sapiens, UniProt P35367); assay: Eurofins SafetyScreen panel; assay type: binding
T9 construct: Eurofins (contract screening, SafetyScreen panel) PP223
T9 sequence (P35367 whole entry): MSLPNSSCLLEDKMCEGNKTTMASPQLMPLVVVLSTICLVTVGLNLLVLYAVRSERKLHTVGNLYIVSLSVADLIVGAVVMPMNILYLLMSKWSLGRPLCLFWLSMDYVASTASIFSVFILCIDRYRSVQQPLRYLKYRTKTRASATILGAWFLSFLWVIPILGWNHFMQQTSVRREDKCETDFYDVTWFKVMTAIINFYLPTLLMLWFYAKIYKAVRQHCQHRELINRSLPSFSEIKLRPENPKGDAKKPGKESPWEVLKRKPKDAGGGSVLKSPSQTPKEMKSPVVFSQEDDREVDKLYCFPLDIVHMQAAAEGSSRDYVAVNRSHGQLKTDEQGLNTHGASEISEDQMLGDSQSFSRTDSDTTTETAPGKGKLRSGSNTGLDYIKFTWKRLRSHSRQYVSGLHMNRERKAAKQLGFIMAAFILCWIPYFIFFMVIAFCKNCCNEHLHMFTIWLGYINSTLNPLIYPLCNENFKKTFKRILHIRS

Histamine H3 = molecular target: T10, Histamine H3 (Homo sapiens, UniProt Q9Y5N1); assay: Eurofins SafetyScreen panel; assay type: binding
T10 construct: purchased Eurofins (Panlabs) SafetyScreen87 Panel

[2] = molecular target: T11, Leukotriene, Cysteinyl CysLT1 (Homo sapiens, UniProt Q9Y271); assay: Eurofins SafetyScreen panel; assay type: binding
T11 construct: purchased Eurofins (Panlabs) SafetyScreen87 Panel

Melanocortin MC1 = molecular target: T12, Melanocortin MC1 (Homo sapiens, UniProt Q01726); assay: Eurofins SafetyScreen panel; assay type: binding
T12 construct: purchased Eurofins (Panlabs) SafetyScreen87 Panel

Muscarinic M2 = molecular target: T13, Muscarinic M2 (Homo sapiens, UniProt P08172); assay: Eurofins SafetyScreen panel; assay type: binding
T13 construct: Eurofins (contract screening, SafetyScreen panel) PP223

Neuropeptide Y Y1 = molecular target: T14, Neuropeptide Y Y1 (Homo sapiens, UniProt P25929); assay: Eurofins SafetyScreen panel; assay type: binding
T14 construct: Eurofins (contract screening, SafetyScreen panel) PP223

Opiate σ1 (OP1, DOP) = molecular target: T15, Opiate σ1 (OP1, DOP) (Homo sapiens, UniProt P41143); assay: Eurofins SafetyScreen panel; assay type: binding; details: read-out: %inh
T15 construct: Eurofins (contract assay)

PPARγ = molecular target: T16, PPARγ (Homo sapiens, UniProt P37231); assay: Eurofins SafetyScreen panel; assay type: binding
T16 construct: Eurofins (contract assay)

Serotonin 5-HT1B = molecular target: T17, Serotonin 5-HT1B (Homo sapiens, UniProt P28222); assay: Eurofins SafetyScreen panel; assay type: binding
T17 construct: Eurofins (contract assay)
T17 sequence (P28222 whole entry): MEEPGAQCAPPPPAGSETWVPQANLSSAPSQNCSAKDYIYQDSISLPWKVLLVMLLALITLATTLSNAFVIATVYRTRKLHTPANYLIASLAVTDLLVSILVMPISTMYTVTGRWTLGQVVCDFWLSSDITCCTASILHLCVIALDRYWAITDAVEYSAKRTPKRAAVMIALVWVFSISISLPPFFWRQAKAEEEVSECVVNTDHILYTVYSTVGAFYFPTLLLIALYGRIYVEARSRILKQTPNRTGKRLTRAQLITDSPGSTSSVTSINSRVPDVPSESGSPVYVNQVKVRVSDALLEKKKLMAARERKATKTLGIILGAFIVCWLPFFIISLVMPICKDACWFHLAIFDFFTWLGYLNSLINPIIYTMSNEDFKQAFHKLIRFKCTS

Serotonin 5-HT2A = molecular target: T18, Serotonin 5-HT2A (Homo sapiens, UniProt P28223); assay: Eurofins SafetyScreen panel; assay type: binding
T18 construct: Eurofins (contract assay)

[3] = molecular target: T19, Dopamine Transporter (DAT) (Homo sapiens, UniProt Q01959); assay: Eurofins SafetyScreen panel; assay type: binding
T19 construct: Eurofins (contract assay)
T19 sequence (Q01959 whole entry): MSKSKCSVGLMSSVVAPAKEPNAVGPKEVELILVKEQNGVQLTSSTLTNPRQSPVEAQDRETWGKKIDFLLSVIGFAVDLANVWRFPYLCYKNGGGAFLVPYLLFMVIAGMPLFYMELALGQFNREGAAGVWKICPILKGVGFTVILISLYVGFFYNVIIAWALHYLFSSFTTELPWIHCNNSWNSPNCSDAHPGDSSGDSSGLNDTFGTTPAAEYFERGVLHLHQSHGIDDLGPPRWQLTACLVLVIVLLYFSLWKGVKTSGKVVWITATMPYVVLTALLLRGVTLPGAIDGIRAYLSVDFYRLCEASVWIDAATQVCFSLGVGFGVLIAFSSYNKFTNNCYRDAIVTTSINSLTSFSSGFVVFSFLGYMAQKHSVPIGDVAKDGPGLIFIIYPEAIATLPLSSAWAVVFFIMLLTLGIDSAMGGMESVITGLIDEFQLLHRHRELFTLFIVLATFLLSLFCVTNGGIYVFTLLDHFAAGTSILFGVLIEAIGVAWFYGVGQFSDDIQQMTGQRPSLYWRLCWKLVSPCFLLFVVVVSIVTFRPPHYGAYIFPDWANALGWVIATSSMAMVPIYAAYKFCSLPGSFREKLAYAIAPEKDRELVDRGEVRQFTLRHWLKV

hD2L = hD2L (Homo sapiens, UniProt P14416); details: D2R
Experimental: For membrane preparation, cells after reaching 90% confluence, were washed with phosphate-buffered saline (PBS), and pelleted by centrifugation (200 × g) in PBS containing 0.1 mM EDTA and 1 mM dithiothreitol.
The total reaction volume was 200 μL. The incubation process was terminated by filtration through UniFilter-96 (PerkinElmer) plates with the FilterMate Universal Harvester (PerkinElmer, #C961962), and radioactivity retained on the filters was quantified on a MicroBeta counter for radiometric detection (PerkinElmer). […] To evaluate the level of nonspecific signal 10 μM of 5-HT for 5-HT1AR and 5-HT7R, 20 μM of mianserin for 5-HT2AR, 10 μM of methiothepine for 5-HT6R and 10 μM of haloperidol for D2LR were used. […] The acquired results were presented as the mean of at least two independent experiments.

hERG potassium channel = hERG potassium channel (Homo sapiens, UniProt Q12809); assay: in vitro; details: %inh
Chain of hERG potassium channel (Q12809 whole entry): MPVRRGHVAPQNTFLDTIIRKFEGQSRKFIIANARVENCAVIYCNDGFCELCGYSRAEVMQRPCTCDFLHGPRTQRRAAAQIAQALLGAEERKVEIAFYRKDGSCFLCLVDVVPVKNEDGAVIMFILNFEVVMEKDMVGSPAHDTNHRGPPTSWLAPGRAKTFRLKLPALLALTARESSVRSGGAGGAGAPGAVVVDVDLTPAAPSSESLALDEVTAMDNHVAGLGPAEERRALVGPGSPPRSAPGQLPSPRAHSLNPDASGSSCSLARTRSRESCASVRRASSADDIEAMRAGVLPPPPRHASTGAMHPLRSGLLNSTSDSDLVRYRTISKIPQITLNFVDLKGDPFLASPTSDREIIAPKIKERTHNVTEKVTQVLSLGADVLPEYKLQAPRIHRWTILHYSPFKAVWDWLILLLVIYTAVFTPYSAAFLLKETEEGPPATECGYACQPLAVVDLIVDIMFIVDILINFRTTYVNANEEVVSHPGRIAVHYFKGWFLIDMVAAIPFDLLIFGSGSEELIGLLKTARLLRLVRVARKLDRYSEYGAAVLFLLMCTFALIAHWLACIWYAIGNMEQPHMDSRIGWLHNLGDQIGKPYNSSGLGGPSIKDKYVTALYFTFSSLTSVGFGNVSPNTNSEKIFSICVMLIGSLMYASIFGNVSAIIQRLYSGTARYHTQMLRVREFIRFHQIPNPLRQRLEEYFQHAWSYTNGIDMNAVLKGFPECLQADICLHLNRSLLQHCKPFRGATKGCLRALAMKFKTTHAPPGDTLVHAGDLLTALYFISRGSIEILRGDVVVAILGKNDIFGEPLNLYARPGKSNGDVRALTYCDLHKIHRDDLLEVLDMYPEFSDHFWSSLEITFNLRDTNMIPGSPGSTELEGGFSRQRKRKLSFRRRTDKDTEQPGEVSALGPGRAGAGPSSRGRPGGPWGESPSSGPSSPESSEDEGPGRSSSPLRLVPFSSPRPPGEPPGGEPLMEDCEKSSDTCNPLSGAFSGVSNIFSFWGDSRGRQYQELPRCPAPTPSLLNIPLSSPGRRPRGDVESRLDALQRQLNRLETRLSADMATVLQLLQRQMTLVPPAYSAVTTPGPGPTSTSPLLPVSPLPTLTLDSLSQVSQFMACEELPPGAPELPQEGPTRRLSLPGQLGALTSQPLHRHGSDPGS

CYP2C9 = CYP2C9 (Homo sapiens, UniProt P11712); assay: Cytochrome P450 inhibition (Eurofins); details: at 10 μM; listed as 17, 10 µM
[4] = read-out: %inh, 10 μM, additional batch

## O=S(=O)(c1cccc(F)c1)n1ccc2c(N3CCNCC3)nc3ccccc3c21 [FPPQ, 1-[(3-Fluorophenyl)sulfonyl]-4-(piperazin-1-yl)-1H-pyrrolo[3,2-c]quinoline dihydrochloride]
MAO-A
  inhibition at 10 µM: 12%
ACE
  inhibition at 10 µM: -9%
Adenosine A1
  inhibition at 10 µM: 29%
Adenosine A2A
  inhibition at 10 µM: 1%
Adrenergic α1B
  inhibition at 10 µM: 29%
Adrenergic α2A
  IC50: 220 nM
  Ki: 110 nM
Adrenergic α2A; read-out: %inh, 10 nM
  inhibition at 0.01 µM: 5%
Adrenergic α2A; read-out: %inh, 0.1 μM
  inhibition at 0.1 µM: 32%
Adrenergic α2A; read-out: %inh, 1 μM
  inhibition at 1 µM: 80%
Adrenergic α2A; read-out: %inh, 10 μM
  inhibition at 10 µM: 97%
Adrenergic α2A; [4]
  inhibition at 10 µM: 98%
[1]; 10 nM
  inhibition at 0.01 µM: -3%
[1]; 1 μM
  inhibition at 1 µM: 46%
[1]
  inhibition at 10 µM: 83%
[1]; additional batch
  inhibition at 10 µM: 92%
Dopamine D2L
  inhibition at 10 µM: 46%
Dopamine D3
  IC50: 630 nM
  Ki: 210 nM
Dopamine D3; read-out: %inh, 10 nM
  inhibition at 0.01 µM: -2%
Dopamine D3; read-out: %inh, 0.1 μM
  inhibition at 0.1 µM: 14%
Dopamine D3; read-out: %inh, 1 μM
  inhibition at 1 µM: 63%
Dopamine D3; read-out: %inh, 10 μM
  inhibition at 10 µM: 89%
Dopamine D3; [4]
  inhibition at 10 µM: 90%
Histamine H1
  IC50: 460 nM
  Ki: 220 nM
Histamine H1; read-out: %inh, 10 nM
  inhibition at 0.01 µM: 4%
Histamine H1; read-out: %inh, 0.1 μM
  inhibition at 0.1 µM: 19%
Histamine H1; read-out: %inh, 1 μM
  inhibition at 1 µM: 67%
Histamine H1; read-out: %inh, 10 μM
  inhibition at 10 µM: 97%
Histamine H1; [4]
  inhibition at 10 µM: 98%
Histamine H3
  inhibition at 10 µM: 26%
[2]
  inhibition at 10 µM: 10%
Melanocortin MC1
  inhibition at 10 µM: 10%
Muscarinic M2
  inhibition at 10 µM: 5%
Neuropeptide Y Y1
  inhibition at 10 µM: 37%
Opiate σ1 (OP1, DOP)
  inhibition at 10 µM: 7%
PPARγ
  inhibition at 10 µM: 28%
Serotonin 5-HT1B
  IC50: 1170 nM
  Ki: 890 nM
Serotonin 5-HT1B; read-out: %inh, 10 nM
  inhibition at 0.01 µM: 5%
Serotonin 5-HT1B; read-out: %inh, 0.1 μM
  inhibition at 0.1 µM: 4%
Serotonin 5-HT1B; read-out: %inh, 1 μM
  inhibition at 1 µM: 47%
Serotonin 5-HT1B; read-out: %inh, 10 μM
  inhibition at 10 µM: 90%
Serotonin 5-HT1B; [4]
  inhibition at 10 µM: 92%
Serotonin 5-HT2A
  inhibition at 10 µM: 50%
[3]
  IC50: 1370 nM
[3]; read-out: %inh, 10 nM
  inhibition at 0.01 µM: 2%
[3]; read-out: %inh, 0.1 μM
  inhibition at 0.1 µM: 6%
[3]; read-out: %inh, 1 μM
  inhibition at 1 µM: 31%
[3]; read-out: %inh, 10 μM
  inhibition at 10 µM: 101%
[3]; [4]
  inhibition at 10 µM: 98%
hD2L
  Ki: 4.39 µM
hERG potassium channel; 10 nM
  inhibition at 0.01 µM: 9%
hERG potassium channel; 0.1 μM
  inhibition at 0.1 µM: 9%
hERG potassium channel; 1 μM
  inhibition at 1 µM: 32%
hERG potassium channel
  inhibition at 10 µM: 107%
hERG potassium channel; additional batch
  inhibition at 10 µM: 101%
CYP2C9
  cytochrome P450 inhibition 2C9: < 25% inh at 10 uM
